Patent US9133158B2, “Bicyclic dihydroisoquinoline-1-one derivatives” (Hoffmann-La Roche Inc., priority 2011, dated 2015)

Assays:
[1] = molecular target: T1, human CYP11B2 (Homo sapiens, UniProt P19099); test: G-402 cellular enzyme assay, human CYP11B2 (aldosterone release, HTRF); format: cell-based; conditions: G-402 cells, 1 μM Deoxycorticosterone
T1 construct: expressed in transfected cells
T1 sequence (P19099 25-503): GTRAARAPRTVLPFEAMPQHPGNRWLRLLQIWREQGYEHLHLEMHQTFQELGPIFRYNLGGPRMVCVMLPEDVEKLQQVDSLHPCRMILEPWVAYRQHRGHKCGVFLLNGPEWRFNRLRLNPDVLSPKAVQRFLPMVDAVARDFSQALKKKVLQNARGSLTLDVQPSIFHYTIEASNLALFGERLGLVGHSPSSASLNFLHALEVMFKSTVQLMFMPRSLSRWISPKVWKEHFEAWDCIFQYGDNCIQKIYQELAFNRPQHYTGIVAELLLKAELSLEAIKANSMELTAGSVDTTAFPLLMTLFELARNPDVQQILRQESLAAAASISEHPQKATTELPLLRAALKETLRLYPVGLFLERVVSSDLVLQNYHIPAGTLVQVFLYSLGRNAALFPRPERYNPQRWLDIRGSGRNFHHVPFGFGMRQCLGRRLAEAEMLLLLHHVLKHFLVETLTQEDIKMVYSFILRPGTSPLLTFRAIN
In short: (§1)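 G-402 cells stably expressing human CYP11B1 or CYP11B2, in DMEM/F12 with 2.5% charcoal-treated FCS, were incubated 16 h with test compound and substrate (1 μM 11-deoxycortisol for CYP11B1; 1 μM deoxycorticosterone for CYP11B2). Cortisol or aldosterone in supernatant was quantified by HTRF; EC50 from 4-parameter MMF fit.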

[2] = molecular target: T2, human CYP11B1 (Homo sapiens, UniProt P15538); test: G-402 cellular enzyme assay, human CYP11B1 (cortisol release, HTRF); format: cell-based; conditions: G-402 cells, 1 μM Deoxycortisol
T2 construct: expressed in transfected cells
T2 sequence (P15538 25-503): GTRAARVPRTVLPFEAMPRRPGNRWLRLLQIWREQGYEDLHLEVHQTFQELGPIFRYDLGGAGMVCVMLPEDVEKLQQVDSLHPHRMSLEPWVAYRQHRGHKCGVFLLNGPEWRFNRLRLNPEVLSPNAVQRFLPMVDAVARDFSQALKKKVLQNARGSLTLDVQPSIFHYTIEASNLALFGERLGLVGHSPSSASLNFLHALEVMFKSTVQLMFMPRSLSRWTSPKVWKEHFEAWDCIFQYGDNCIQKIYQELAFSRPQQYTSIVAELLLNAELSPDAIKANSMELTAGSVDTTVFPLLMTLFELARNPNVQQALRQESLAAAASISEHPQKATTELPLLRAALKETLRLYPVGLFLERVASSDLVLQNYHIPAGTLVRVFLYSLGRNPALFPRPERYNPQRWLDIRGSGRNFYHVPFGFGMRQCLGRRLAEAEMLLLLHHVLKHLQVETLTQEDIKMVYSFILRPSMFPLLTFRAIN
In short: as §1

EC50 [1] [nM]	EC50 [2] [nM]	Compound
581	10000	NC(=O)COc1cncc(N2CCc3cc(Cl)ccc3C2=O)c1 [Example 253, 2-[5-(6-Chloro-1-oxo-3,4-dihydro-1H-isoquinolin-2-yl)-pyridin-3-yloxy]-acetamide]
2130	32500	CNC(=O)COc1cncc(N2CCc3cc(Cl)ccc3C2=O)c1 [Example 254, 2-[5-(6-Chloro-1-oxo-3,4-dihydro-1H-isoquinolin-2-yl)-pyridin-3-yloxy]-N-methyl-acetamide]
2800	7610	COC(=O)COc1cncc(N2CCc3cc(Cl)ccc3C2=O)c1 [Example 255, [5-(6-Chloro-1-oxo-3,4-dihydro-1H-isoquinolin-2-yl)-pyridin-3-yloxy]-acetic acid methyl ester]
11.3	95.4	O=C1c2ccc(Cl)cc2CCN1c1cncc(CNc2ccccc2)c1 [Example 257, 6-Chloro-2-(5-phenylaminomethyl-pyridin-3-yl)-3,4-dihydro-2H-isoquinolin-1-one]
3.7	41.8	O=C1c2ccc(Cl)cc2CCN1c1cncc(CNc2ccc(F)cc2)c1 [Example 258, 6-Chloro-2-{5-[(4-fluoro-phenylamino)-methyl]-pyridin-3-yl}-3,4-dihydro-2H-isoquinolin-1-one]
12.2	73.8	O=C1c2ccc(Cl)cc2CCN1c1cncc(CNc2cccc(F)c2)c1 [Example 259, 6-Chloro-2-{5-[(3-fluoro-phenylamino)-methyl]-pyridin-3-yl}-3,4-dihydro-2H-isoquinolin-1-one]
471	345	O=C1c2ccc(Cl)cc2CCN1c1cncc(CNc2ccc(Cl)cc2)c1 [Example 260, 6-Chloro-2-{5-[(4-chloro-phenylamino)-methyl]-pyridin-3-yl}-3,4-dihydro-2H-isoquinolin-1-one]
26.7	105	O=C1c2ccc(Cl)cc2CCN1c1cncc(CNc2cccc(Cl)c2)c1 [Example 261, 6-Chloro-2-{5-[(3-chloro-phenylamino)-methyl]-pyridin-3-yl}-3,4-dihydro-2H-isoquinolin-1-one]
14.1	300	O=C1c2ccc(Cl)cc2CCN1c1cncc(CNc2cc[nH]n2)c1 [Example 262, 6-Chloro-2-{5-[(1H-pyrazol-3-ylamino)-methyl]-pyridin-3-yl}-3,4-dihydro-2H-isoquinolin-1-one]
491	4930	O=C(Cc1cncc(N2CCc3cc(Cl)ccc3C2=O)c1)N1CCOCC1 [Example 263, 6-Chloro-2-[5-(2-morpholin-4-yl-2-oxo-ethyl)-pyridin-3-yl]-3,4-dihydro-2H-isoquinolin-1-one]
843	4190	O=C(Cc1cncc(N2CCc3cc(Cl)ccc3C2=O)c1)NCCO [Example 264, 2-[5-(6-Chloro-1-oxo-3,4-dihydro-4H-isoquinolin-2-yl)-pyridin-3-yl]-N-(2-hydroxy-ethyl)-acetamide]
437	5020	CNC(C)c1cncc(N2CCc3cc(Cl)ccc3C2=O)c1 (stereo not drawn) [Example 265, 6-Chloro-2-[5-(1-methylamino-ethyl)-pyridin-3-yl]-3,4-dihydro-2H-isoquinolin-1-one]
44.4	276	CC(c1cncc(N2CCc3cc(Cl)ccc3C2=O)c1)N(C)C (stereo not drawn) [Example 266, 6-Chloro-2-[5-(1-dimethylamino-ethyl)-pyridin-3-yl]-3,4-dihydro-2H-isoquinolin-1-one]
1610	11300	Cn1ccnc1C(=O)c1cncc(N2CCc3cc(Cl)ccc3C2=O)c1 [Example 267, 6-Chloro-2-[5-(1-methyl-4H-imidazole-2-carbonyl)-pyridin-3-yl]-3,4-dihydro-2H-isoquinolin-1-one]
1650	14200	Cn1cnnc1Cc1cncc(N2CCc3cc(Cl)ccc3C2=O)c1 [Example 268, 6-Chloro-2-[5-(4-methyl-4H-[1,2,4]-triazol-3-ylmethyl)-pyridin-3-yl]-3,4-dihydro-2H-isoquinolin-1-one]
46.2	425	CC(c1cncc(N2CCc3cc(Cl)ccc3C2=O)c1)n1nccn1 (stereo not drawn) [Example 269, 6-Chloro-2-[5-(1-[1,2,3]triazol-2-yl-ethyl)-pyridin-3-yl]-3,4-dihydro-2H-isoquinolin-1-one]
6.3	27.9	CC(c1cncc(N2CCc3cc(Cl)ccc3C2=O)c1)n1ccnc1 (stereo not drawn) [Example 270, 6-Chloro-2-[5-(1-imidazol-1-yl-ethyl)-pyridin-3-yl]-3,4-dihydro-2H-isoquinolin-1-one]
24.8	251	CC(c1cncc(N2CCc3cc(Cl)ccc3C2=O)c1)n1cccn1 (stereo not drawn) [Example 271, 6-Chloro-2-[5-(1-pyrazol-1-yl-ethyl)-pyridin-3-yl]-3,4-dihydro-2H-isoquinolin-1-one]
60.4	210	CC(Nc1ncco1)c1cncc(N2CCc3cc(Cl)ccc3C2=O)c1 (stereo not drawn) [Example 272, 6-Chloro-2-{5-[1-(oxazol-2-ylamino)-ethyl]-pyridin-3-yl}-3,4-dihydro-2H-isoquinolin-1-one]
64	449	CC(c1cncc(N2CCc3cc(Cl)ccc3C2=O)c1)n1cncn1 (stereo not drawn) [Example 273, 6-Chloro-2-[5-(1-[1,2,4]triazol-1-yl-ethyl)-pyridin-3-yl]-3,4-dihydro-2H-isoquinolin-1-one]
128	1050	CC(c1cncc(N2CCc3cc(Cl)ccc3C2=O)c1)N1CCCC1=O (stereo not drawn) [Example 274, 6-Chloro-2-{5-[1-(2-oxo-pyrrolidin-1-yl)-ethyl]-pyridin-3-yl}-3,4-dihydro-2H-isoquinolin-1-one]
731	7820	CC(c1cncc(N2CCc3cc(Cl)ccc3C2=O)c1)N1CCOC1=O (stereo not drawn) [Example 275, 6-Chloro-2-{5-[1-(2-oxo-oxazolidin-3-yl)-ethyl]-pyridin-3-yl}-3,4-dihydro-2H-isoquinolin-1-one]
284	2030	CC(NS(C)(=O)=O)c1cncc(N2CCc3cc(Cl)ccc3C2=O)c1 (stereo not drawn) [Example 276, N-{1-[5-(6-Chloro-1-oxo-3,4-dihydro-1H-isoquinolin-2-yl)-pyridin-3-yl]-ethyl}-methanesulfonamide]
64.1	163	CC(Nc1cccc(F)c1)c1cncc(N2CCc3cc(Cl)ccc3C2=O)c1 (stereo not drawn) [Example 277, 6-Chloro-2-{5-[1-(3-fluoro-phenylamino)-ethyl]-pyridin-3-yl}-3,4-dihydro-2H-isoquinolin-1-one]
6.1	34.4	CC(Nc1ccccc1)c1cncc(N2CCc3cc(Cl)ccc3C2=O)c1 (stereo not drawn) [Example 278, 6-Chloro-2-[5-(1-phenylamino-ethyl)-pyridin-3-yl]-3,4-dihydro-2H-isoquinolin-1-one]
600	11100	C[S+]([O-])c1cncc(N2CCc3cc(Cl)ccc3C2=O)c1 (stereo not drawn) [Example 279, 6-Chloro-2-(5-methanesulfinyl-pyridin-3-yl)-3,4-dihydro-2H-isoquinolin-1-one]
0.4	3	Cn1cc(Cc2cncc(N3C(=O)c4ccc(Cl)cc4C3(C)C)c2)cn1 [Example 281, 5-Chloro-3,3-dimethyl-2-[5-(1-methyl-1H-pyrazol-4-ylmethyl)-pyridin-3-yl]-2,3-dihydro-isoindol-1-one]
